Experiments:
[1] = molecular target: T1, Growth factor receptor-bound protein 2 (Homo sapiens, UniProt P62993); experiment: Inhibition of binding to Grb2 SH2 domain
[2] = molecular target: Tyrosine-protein kinase Lck (Homo sapiens, UniProt P06239); experiment: Inhibition of binding to p56 Lck tyrosine kinase SH2 domain
[3] = molecular target: T2, Tyrosine-protein phosphatase non-receptor type 11 (Homo sapiens, UniProt Q06124); experiment: Inhibition of interaction between the activated tyrosine kinase receptors and Shp2 SH2 domains in the Ras signal transduction pathway.
T2 sequence (Q06124 whole entry): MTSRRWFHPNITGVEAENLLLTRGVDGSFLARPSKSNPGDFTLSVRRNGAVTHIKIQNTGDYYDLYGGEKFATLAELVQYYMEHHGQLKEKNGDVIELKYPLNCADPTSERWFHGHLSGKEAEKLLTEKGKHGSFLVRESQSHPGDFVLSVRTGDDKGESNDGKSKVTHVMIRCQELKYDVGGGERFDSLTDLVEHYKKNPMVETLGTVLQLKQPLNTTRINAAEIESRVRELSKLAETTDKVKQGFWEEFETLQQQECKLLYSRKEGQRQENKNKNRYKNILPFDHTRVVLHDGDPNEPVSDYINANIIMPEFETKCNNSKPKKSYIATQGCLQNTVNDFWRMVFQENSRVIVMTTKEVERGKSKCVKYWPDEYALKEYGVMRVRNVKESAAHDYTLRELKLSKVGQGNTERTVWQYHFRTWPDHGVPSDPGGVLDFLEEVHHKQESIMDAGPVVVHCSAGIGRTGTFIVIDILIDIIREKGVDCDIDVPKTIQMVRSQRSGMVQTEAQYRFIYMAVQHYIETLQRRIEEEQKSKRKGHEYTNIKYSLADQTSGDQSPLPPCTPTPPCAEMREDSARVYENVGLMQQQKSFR

[4] = Inhibition of binding to N-terminal p85 SH2 domain
[5] = molecular target: T1, Growth factor receptor-bound protein 2; experiment: Inhibition of binding to Growth factor receptor bound protein 2 (Grb2) SH2 domain

T1 sequence (P62993 whole entry, the tested form may be a part): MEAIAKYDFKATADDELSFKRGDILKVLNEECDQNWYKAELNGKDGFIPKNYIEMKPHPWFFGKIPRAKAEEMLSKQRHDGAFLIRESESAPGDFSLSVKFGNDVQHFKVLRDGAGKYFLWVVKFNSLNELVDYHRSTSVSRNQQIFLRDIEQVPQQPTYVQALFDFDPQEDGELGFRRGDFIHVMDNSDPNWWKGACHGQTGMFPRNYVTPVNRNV
Sequence of Tyrosine-protein kinase Lck (P06239 whole entry, the tested form may be a part): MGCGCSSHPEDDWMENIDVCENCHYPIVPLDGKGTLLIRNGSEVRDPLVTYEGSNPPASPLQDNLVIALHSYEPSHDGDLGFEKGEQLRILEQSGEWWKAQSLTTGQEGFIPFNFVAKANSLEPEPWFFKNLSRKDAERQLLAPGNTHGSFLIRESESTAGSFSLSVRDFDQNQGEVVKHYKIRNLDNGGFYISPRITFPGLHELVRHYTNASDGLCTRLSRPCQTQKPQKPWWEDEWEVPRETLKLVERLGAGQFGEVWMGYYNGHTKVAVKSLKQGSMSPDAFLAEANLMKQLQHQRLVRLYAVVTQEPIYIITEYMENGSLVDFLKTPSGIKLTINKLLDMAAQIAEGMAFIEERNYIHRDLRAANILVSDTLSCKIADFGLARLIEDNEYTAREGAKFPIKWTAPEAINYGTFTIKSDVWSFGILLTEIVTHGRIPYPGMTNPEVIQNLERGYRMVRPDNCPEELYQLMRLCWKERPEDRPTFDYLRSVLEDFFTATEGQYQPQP

SMILES | IC50 [1] [nM] | IC50 [2] [nM] | IC50 [3] [nM] | IC50 [4] [nM] | IC50 [5] [nM]
NC(=O)C[C@H](NC(=O)C1(NC(=O)[C@H](Cc2ccc(OP(=O)(O)O)cc2)NC(=O)OCc2cccc(N)c2)CCCC1)C(N)=O | 23 |  |  |  | 
CC(C)(NC(=O)[C@@H](N)Cc1ccc(OP(=O)(O)O)c(N)c1)C(=O)N[C@@H](CC(N)=O)C(N)=O | 206 |  |  |  | 
NC(=O)C[C@H](NC(=O)C1(NC(=O)[C@H](Cc2ccc(OP(=O)(O)O)cc2)NC(=O)OCc2cccc(N)c2)CC1)C(N)=O | 124 |  |  |  | 
NC(=O)C[C@H](NC(=O)C1(NC(=O)[C@H](Cc2ccc(OP(=O)(O)O)cc2)NC(=O)OCc2cccc(N)c2)Cc2ccccc2C1)C(N)=O | 140 |  |  |  | 
NC(=O)C[C@H](NC(=O)C1(NC(=O)[C@@H](N)Cc2ccc(OP(=O)(O)O)c(N)c2)CCCCC1)C(N)=O | 1 | 6.24 | > 5000 | 970 | 4

Source: ChEMBL document CHEMBL1131223, “Potent antagonists of the SH2 domain of Grb2: optimization of the X+1 position of 3-amino-Z-Tyr(PO3H2)-X+1-Asn-NH2” (J Med Chem, 1998)
